Patent US12180146B2, “Antihypertensive polyol compound and derivative thereof” (TAO PHARMACEUTICAL (SUZHOU) CO., LTD, priority 2020, dated 2024)

Legend:
[1] = tested on: spontaneously hypertensive rats (SHR); experiment: Antihypertensive activity test: blood pressure and heart rate of spontaneously hypertensive rats (SHR); format: in vivo, rat; conditions: 200 mg/kg; for SHR blood pressure (SBP), time after administration 1 h / SHR blood pressure (SBP), time after administration 2 h / SHR blood pressure (SBP), time after administration 3 h / SHR blood pressure (SBP), time after administration 4 h / SHR blood pressure (SBP), time after administration 5 h / SHR blood pressure (SBP), time after administration 6 h: n = 8
Procedure, shortened: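 Spontaneously hypertensive rats received compound at 200 mg/kg. SBP and heart rate were measured before and after dosing. A drop in SBP of ≥20 mmHg from baseline counted as effective, and heart-rate changes were tested by paired t-test (P<0.05).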

[2] = tested on: hypoxic pulmonary hypertension model rats; experiment: Hypoxic pulmonary hypertension model rats, oral (gavage) treatment for 28 days; format: in vivo, SD rats; conditions: hypoxic PAH rats, 200 mg/kg, po
Experimental: An animal model of pulmonary hypertension in SD rats was established in a hypoxic and low-pressure environment, and compound 1 was administered by gavage at the same time for treatment. The rat pulmonary artery hemodynamics and right heart hypertrophy index RVHI were measured to determine whether compound 1 has effects of improving hypoxic pulmonary hypertension.
(§1) SD rats (purchased from Shanghai Xipuer-Bikai Experimental Animal Co., Ltd.), male, weighing 180-200 g, were bred in an artificially controlled animal room with each 12 hours of light and darkness at a temperature of 20-25° C. and relative humidity of 50-60%, and allowed ad libitum to food and water. The rats were randomly divided into groups according to the experimental requirements, and kept separately in cages, with 3 to 4 rats per cage. All relevant operations of animal experiments are in compliance with the provisions of “Guidelines for the Management and Use of Laboratory Animals” of China.
The hypoxic PAH model was established by placing SD male rats in a fully-automatically regulated low-pressure hypoxic chamber (atmospheric pressure of about 50 kPa, oxygen concentration of 10%) for 8 hours a day for 28 days. The rats in the blank control group were kept in a normoxic environment.
The experimental rats of hypoxic PAH model were divided into 8 groups, namely blank control group, model group, Sidenafil (25 mg/kg) group, compound 1 (10 mg/kg) group, compound 1 (25 mg/kg) group, compound 1 (50 mg/kg) group, compound 1 (100 mg/kg) group, and compound 1 (200 mg/kg) group. The concentration in the parentheses of the group name represents the administration concentration of the compound or drug. In hypoxia-induced PAH experiments, Sidenafil is often used as a positive drug, which can reduce the pulmonary artery pressure in rats and reduce the right ventricular hypertrophy and vascular remodeling. In this experiment, 25 mg/kg of Sidenafil was used as the positive drug. Both the positive drugs Sidenafil and Compound 1 were dissolved in physiological saline and formulated into solutions of different concentrations according to different administration concentrations. The rats were continuously administered for 28 days with an administration volume of 5 ml/kg. Rats in the control and model groups were given the corresponding volume of physiological saline solution via gavage. The specific grouping can be found in Table 5.
After the administration was completed, the POWERLAB biological information acquisition and treatment system was started, and the right cardiac catheter filled with 0.2% heparin sodium (Beijing Solo Technology Co. Ltd.) in normal saline was connected to the pressure transducer and then zero-calibrationed for use. After 20% urethane (Shanghai Yuanye Biotechnology Co., Ltd.) solution was injected into the abdominal cavity of the rats for anesthesia, the right neck hair was shaved and the right jugular vein was isolated and exposed. […] After the typical right ventricular waveform appeared and stabilized for a while, the waveform was recorded, and then the pressure value was read by Powerlab biological information acquisition and processing system (ADInstruments).
After the pressure was measured, the catheter was taken out, and the rat was dissected immediately to take out the heart and lung tissues. The right ventricle (RV) and the left ventricle and interventricular septum (LV+S) were separated and weighed, and the right heart hypertrophy index RVHI=RV/(LV+S) was calculated. The lung lobe tissue from the right lower part of the lung was separated, soaked in 4% paraformaldehyde (Sigma) for about 1 week to prepare a paraffin section with a thickness of 3 μm, and then conducted to hematoxylin-eosin staining (Wuhan Guge Biotechnology Co., Ltd.). […]

[3] = tested on: monocrotaline-induced pulmonary hypertension model rats (MCT-PAH); experiment: Monocrotaline-induced pulmonary hypertension model rats, oral (gavage) treatment for 21 days; format: in vivo, SD rats; conditions: 100 mg/kg
Description: Monocrotaline (MCT) was subcutaneously injected to establish an animal model of pulmonary hypertension in SD rats. At the same time, compound 1 was given by gavage for treatment. The pulmonary artery hemodynamics and right heart hypertrophy index RVHI of the rates were detected to determine whether the oral administration of compound 1 has effects of improving Monocrotaline induces pulmonary hypertension.
as §1
During the experiment, SD rats were randomly divided into 4 groups: blank control group, pulmonary hypertension model group, Selexipag (1 mg/kg) treatment group and compound 1 (100 mg/kg) group with 6 rats in each group, and the concentration in brackets represents the administration concentration of the compound, in which Selexipag is a new oral long-acting prostacyclin receptor agonist discovered and synthesized by Japan New Drug Co., Ltd. On the first day of the experiment, normal saline was injected subcutaneously into the back of neck of rats in the blank control group, and monocrotaline (Chengdu Purifa Biotechnology Co., Ltd.) solution was injected in the rats in other groups at a dosage of 60 mg/kg. Both the positive drug, Selexipag and Compound 1 were administered by gavage. Selexipag and […] were dissolved in 0.5% CMC-Na solution. The rats were continuously administered for 21 days with a volume of […]. The rats in the control and model groups were given the corresponding volume of CMC-Na solution by gavage. Specific groupings can be found in Table 7.
After the administration, the pulmonary vascular hemodynamics and RVHI was determined according to the same experiment method as that in Example 1.

[4] = tested on: monocrotaline-induced pulmonary hypertension model rats (MCT-PAH); experiment: Monocrotaline-induced pulmonary hypertension model rats, aerosol inhalation treatment; format: in vivo, SD rats; conditions: 30 mg/kg, inh, 28 days
Experimental: A pulmonary hypertension animal model of SD rats was established by subcutaneous injection of monocrotaline (MCT). The compound 1 was administered by aerosol inhalation for treatment. The pulmonary artery hemodynamics and right heart hypertrophy index RVHI of rats were tested to determine whether compound 1 administered by aerosol inhalation has effects of improving monocrotaline-induced pulmonary hypertension.
as §1
In the second experiment, the rats were divided into 5 groups, namely the control group, model group, positive control Tyvaso (1.62 μg/kg) group, compound 1 (10 mg/kg) group and compound 1 (30 mg/kg) group. On the first day of the experiment, normal saline was injected subcutaneously into the back of the neck of the rats in the blank control group, and monocrotaline (Chengdu Purifa Biotechnology Co., Ltd.) solution was injected in the other groups at a dosage of 60 mg/kg. Compound 1 and Tyvaso were administered by aerosol inhalation, that is, the compound was firstly dissolved in physiological saline, and then the solution was prepared into an aerosol with a nebulizer to be inhaled into the mouth and nose of rats. The rats in the control group and the model group only inhaled an aerosol made of physiological saline. The rats were continuously administered for 28 days, and the concentration in the parentheses of the group name represents the administered concentration of the compound. Specific groupings can be found in Table 9. After the administration, the pulmonary vascular hemodynamics and RVHI were determined in the same way as the experiment method in Example 1.

Row | Compound | SBP Difference before and after administration, 1 h [1] | SHR blood pressure (SBP), time after administration 1 h [1] | SBP Difference before and after administration, 2 h [1] | SHR blood pressure (SBP), time after administration 2 h [1] | SBP Difference before and after administration, 3 h [1] | SHR blood pressure (SBP), time after administration 3 h [1] | SBP Difference before and after administration, 4 h [1] | SHR blood pressure (SBP), time after administration 4 h [1] | SBP Difference before and after administration, 5 h [1] | SHR blood pressure (SBP), time after administration 5 h [1] | SBP Difference before and after administration, 6 h [1] | SHR blood pressure (SBP), time after administration 6 h [1] | 2 × MT/ED [2] | RVHI [2] | RVSP [2] | mPAP [2] | 2 × MT/ED [3] | RVHI [3] | RVSP [3] | mPAP [3] | further results
1 | COc1cccc(C(O)CO)c1 (stereo not shown) [Compound 8] | 6 mmHg | 188 ± 12.4 mmHg | 13 mmHg | 181 ± 12.7 mmHg | 18 mmHg | 176 ± 11.1 mmHg | 18 mmHg | 176 ± 10.3 mmHg | 14 mmHg | 180 ± 11.3 mmHg | 8 mmHg | 186 ± 10.4 mmHg | 0.277 ± 0.022 | 0.296 ± 0.027 | 62.50 ± 2.91 mmHg | 17.19 ± 3.65 mmHg | 0.31 ± 0.052 | 0.33 ± 0.037 | 45.97 ± 3.49 mmHg | 16.47 ± 3.07 mmHg | SBP Difference before and after administration, 0 h ([1]; 0 h): 0 mmHg; 2 × MT/ED [4]: 0.353 ± 0.043; RVHI [4]: 0.306 ± 0.027; RVSP [4]: 45.92 ± 3.47 mmHg; mPAP [4]: 14.16 ± 3.84 mmHg
2 | CCc1ccccc1C(O)CO (stereo not shown) [Compound 5] | 20 mmHg | 169 ± 6.32 mmHg | 15 mmHg | 174 ± 4.56 mmHg | 18 mmHg | 171 ± 9.34 mmHg | 16 mmHg | 173 ± 13.66 mmHg | 15 mmHg | 174 ± 15.9 mmHg | 11 mmHg | 178 ± 8.48 mmHg | 0.270 ± 0.012 | 0.271 ± 0.038 | 60.29 ± 3.87 mmHg | 15.76 ± 2.71 mmHg | 0.29 ± 0.054 | 0.35 ± 0.048 | 44.32 ± 2.12 mmHg | 15.76 ± 2.71 mmHg | 2 × MT/ED [4]: 0.390 ± 0.038; RVHI [4]: 0.324 ± 0.053; RVSP [4]: 40.18 ± 4.62 mmHg; mPAP [4]: 11.06 ± 2.95 mmHg
3 | OCC(O)c1cccc(F)c1 (stereo not shown) [Compound 7] | 16 mmHg | 177 ± 9.56 mmHg | 21 mmHg | 172 ± 7.36 mmHg | 22 mmHg | 171 ± 4.07 mmHg | 20 mmHg | 173 ± 6.18 mmHg | 18 mmHg | 175 ± 5.63 mmHg | 13 mmHg | 180 ± 7.61 mmHg | 0.291 ± 0.023 | 0.261 ± 0.037 | 62.78 ± 3.41 mmHg | 16.64 ± 2.08 mmHg | 0.27 ± 0.045 | 0.33 ± 0.058 | 42.31 ± 2.78 mmHg | 15.67 ± 2.70 mmHg | 2 × MT/ED [4]: 0.375 ± 0.024; RVHI [4]: 0.267 ± 0.013; RVSP [4]: 44.61 ± 2.96 mmHg; mPAP [4]: 12.45 ± 2.41 mmHg
4 | CCc1cccc(C(CO)OC2OC(CO)C(O)C(O)C2O)c1 (stereo not shown) [Compound 16] | 9 mmHg | 174 ± 10.6 mmHg | 11 mmHg | 172 ± 10.4 mmHg | 10 mmHg | 173 ± 9.90 mmHg | 15 mmHg | 168 ± 6.61 mmHg | 11 mmHg | 172 ± 7.25 mmHg | 9 mmHg | 174 ± 12.1 mmHg | 0.289 ± 0.030 | 0.365 ± 0.031 | 65.83 ± 3.26 mmHg | 18.60 ± 3.60 mmHg | 0.32 ± 0.066 | 0.320 ± 0.031 | 48.89 ± 6.64 mmHg | 16.74 ± 3.08 mmHg | 2 × MT/ED [4]: 0.357 ± 0.032; RVHI [4]: 0.290 ± 0.054; RVSP [4]: 41.44 ± 2.03 mmHg; mPAP [4]: 14.76 ± 1.98 mmHg
